Experimental data published in the supplement of paper PMC8617591.

What was measured:
[1] = tested on: Mycobacterium tuberculosis Erdman (autoluminescent); assay: GRinf, maximum normalised growth rate inhibition (three-drug combination) (unitless (-1 to 1)); higher = less effect (negative = killing)
Method: (§1)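 DiaMOND equipotent three-drug combination dose responses (10 doses, 1.5- or 2-fold spacing, centred on IC90) against autoluminescent M. tuberculosis Erdman in 8 in vitro models. Read-out is OD600, or luminescence for the intracellular and dormancy models, normalised to untreated wells. Hill-fit Einf, AUC25 and GRinf are potency metrics; FIC50 and FIC90 are total Loewe fractional inhibitory concentrations as log2 (negative = synergy).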

[2] = tested on: Mycobacterium tuberculosis Erdman (autoluminescent); assay: Einf, fitted maximum growth inhibition of three-drug combination (fraction); higher = stronger maximal inhibition
Method: as §1

[3] = tested on: Mycobacterium tuberculosis Erdman (autoluminescent); assay: total FIC90 (Loewe) at 90% inhibition, three-drug combination (log2); higher = more antagonistic
Method: as §1

[4] = tested on: Mycobacterium tuberculosis Erdman (autoluminescent); assay: AUC25, normalised area under dose response up to IC25 (three-drug combination) (fraction (0-1)); higher = more potent at low dose
Method: as §1

[5] = tested on: Mycobacterium tuberculosis Erdman (autoluminescent); assay: total FIC50 (Loewe) at 50% inhibition, three-drug combination (log2); higher = more antagonistic
Method: as §1

CC(C)/N=c1\cc2n(-c3ccc(Cl)cc3)c3ccccc3nc-2cc1Nc1ccc(Cl)cc1 [clofazimine] + CC[C@@H](CO)NCCN[C@@H](CC)CO [ethambutol] + NNC(=O)c1ccncc1 [isoniazid]
Conditions | AUC25, [4] | Einf, [2] | GRinf, [1] | total FIC50, [5] | total FIC90, [3]
in vitro model: acidic pH 5.7, time point: constant (~7 days, model-specific) | 0.0868 | 0.732 | -0.0169 | 0.498 | –
in vitro model: acidic pH 5.7, time point: terminal (~4-5 doublings, model-specific) | 0.0876 | 0.955 | -0.0829 | 0.678 | 0.618
in vitro model: intracellular J774, time point: constant = terminal | – | 0.988 | -0.375 | – | -0.505

Conditions | AUC25, [4] | Einf, [2] | GRinf, [1] | total FIC50, [5] | total FIC90, [3]
in vitro model: butyrate, time point: constant (~7 days, model-specific) | 0.0914 | 0.946 | -0.098 | 0.523 | –
in vitro model: butyrate, time point: terminal (~4-5 doublings, model-specific) | 0.0804 | 0.976 | -0.12 | 0.504 | 0.513
in vitro model: cholesterol 0.05 mM, time point: constant (~7 days, model-specific) | 0.117 | 0.751 | -0.165 | 0.257 | –
in vitro model: cholesterol 0.05 mM, time point: terminal (~4-5 doublings, model-specific) | 0.126 | 0.852 | -0.135 | 1.57 | –
in vitro model: cholesterol-high 0.2 mM, time point: constant (~7 days, model-specific) | 0.0601 | 0.951 | -0.518 | 0.899 | –
in vitro model: cholesterol-high 0.2 mM, time point: terminal (~4-5 doublings, model-specific) | 0.0945 | 0.998 | -0.932 | 0.577 | 0.985
in vitro model: dormancy (butyrate + nitrate, low O2), time point: constant (~7 days, model-specific) | 0.0906 | 0.807 | 0.507 | 0.0627 | –
in vitro model: dormancy (butyrate + nitrate, low O2), time point: terminal (~4-5 doublings, model-specific) | 0.132 | 0.998 | -0.444 | -0.121 | 0.753
in vitro model: standard 7H9 glycerol, time point: constant = terminal | 0.118 | 0.954 | -0.121 | -0.209 | –
in vitro model: valerate, time point: constant (~7 days, model-specific) | 0.128 | 0.873 | 0.0565 | 0.974 | –
in vitro model: valerate, time point: terminal (~4-5 doublings, model-specific) | 0.0871 | 0.919 | 0.0494 | 0.446 | -0.137

CC(C)/N=c1\cc2n(-c3ccc(Cl)cc3)c3ccccc3nc-2cc1Nc1ccc(Cl)cc1 [clofazimine] + CC[C@@H](CO)NCCN[C@@H](CC)CO [ethambutol] + O=[N+]([O-])c1cn2c(n1)OC[C@@H](OCc1ccc(OC(F)(F)F)cc1)C2 [pretomanid]
Conditions | AUC25, [4] | Einf, [2] | GRinf, [1] | total FIC50, [5] | total FIC90, [3]
in vitro model: acidic pH 5.7, time point: constant (~7 days, model-specific) | 0.129 | 0.803 | -0.436 | 0.449 | –
in vitro model: acidic pH 5.7, time point: terminal (~4-5 doublings, model-specific) | 0.0966 | 0.954 | -0.21 | 0.46 | 0.859
in vitro model: intracellular J774, time point: constant = terminal | – | 0.987 | -0.321 | – | -1.25

Conditions | AUC25, [4] | Einf, [2] | GRinf, [1] | total FIC50, [5] | total FIC90, [3]
in vitro model: butyrate, time point: constant (~7 days, model-specific) | 0.103 | 0.962 | -0.142 | 0.411 | –
in vitro model: butyrate, time point: terminal (~4-5 doublings, model-specific) | 0.0799 | 0.981 | -0.138 | 0.442 | 0.382
in vitro model: cholesterol 0.05 mM, time point: constant (~7 days, model-specific) | 0.136 | 0.718 | -0.577 | – | –
in vitro model: cholesterol 0.05 mM, time point: terminal (~4-5 doublings, model-specific) | 0.131 | 0.84 | -0.0173 | 2.15 | –
in vitro model: cholesterol-high 0.2 mM, time point: constant (~7 days, model-specific) | 0.102 | 0.928 | -0.371 | 1.08 | –
in vitro model: cholesterol-high 0.2 mM, time point: terminal (~4-5 doublings, model-specific) | 0.0873 | 0.994 | -0.857 | 0.97 | 1.51
in vitro model: dormancy (butyrate + nitrate, low O2), time point: constant (~7 days, model-specific) | 0.106 | 0.824 | 0.446 | -0.084 | –
in vitro model: dormancy (butyrate + nitrate, low O2), time point: terminal (~4-5 doublings, model-specific) | 0.127 | 0.99 | -0.258 | -0.114 | 0.801
in vitro model: standard 7H9 glycerol, time point: constant = terminal | 0.126 | 0.956 | -0.273 | -0.284 | –
in vitro model: valerate, time point: constant (~7 days, model-specific) | 0.14 | 0.867 | -0.308 | 0.805 | –
in vitro model: valerate, time point: terminal (~4-5 doublings, model-specific) | 0.0932 | 0.92 | 0.0599 | 0.355 | 0.973

CC(C)/N=c1\cc2n(-c3ccc(Cl)cc3)c3ccccc3nc-2cc1Nc1ccc(Cl)cc1 [clofazimine] + CO[C@H]1/C=C/O[C@@]2(C)Oc3c(C)c(O)c4c(O)c(c(/C=N/N5CCN(C6CCCC6)CC5)c(O)c4c3C2=O)NC(=O)/C(C)=C\C=C\[C@H](C)[C@H](O)[C@@H](C)[C@@H](O)[C@@H](C)[C@H](OC(C)=O)[C@@H]1C [rifapentine] + CO[C@H]1/C=C/O[C@@]2(C)Oc3c(C)c(O)c4c(O)c(c(/C=N/N5CCN(C)CC5)c(O)c4c3C2=O)NC(=O)/C(C)=C\C=C\[C@H](C)[C@H](O)[C@@H](C)[C@@H](O)[C@@H](C)[C@H](OC(C)=O)[C@@H]1C [rifampicin]
Conditions | AUC25, [4] | Einf, [2] | GRinf, [1] | total FIC50, [5] | total FIC90, [3]
in vitro model: acidic pH 5.7, time point: constant (~7 days, model-specific) | 0.0846 | 0.855 | -0.0603 | 0.102 | –
in vitro model: acidic pH 5.7, time point: terminal (~4-5 doublings, model-specific) | 0.076 | 0.975 | -0.1 | 0.133 | -0.159
in vitro model: intracellular J774, time point: constant = terminal | – | 0.956 | -0.293 | – | 0.0463

Conditions | AUC25, [4] | Einf, [2] | GRinf, [1] | total FIC50, [5] | total FIC90, [3]
in vitro model: butyrate, time point: constant (~7 days, model-specific) | 0.115 | 0.935 | -0.0887 | 0.282 | 0.128
in vitro model: butyrate, time point: terminal (~4-5 doublings, model-specific) | 0.0924 | 0.967 | -0.0699 | 0.19 | 0.285
in vitro model: cholesterol 0.05 mM, time point: constant (~7 days, model-specific) | 0.13 | 0.619 | -0.094 | 0.554 | –
in vitro model: cholesterol 0.05 mM, time point: terminal (~4-5 doublings, model-specific) | 0.098 | 0.865 | 0.0942 | 1.05 | 0.206
in vitro model: cholesterol-high 0.2 mM, time point: constant (~7 days, model-specific) | 0.105 | 0.887 | -0.333 | 0.692 | –
in vitro model: cholesterol-high 0.2 mM, time point: terminal (~4-5 doublings, model-specific) | 0.0914 | 0.999 | -0.983 | 0.952 | 0.73
in vitro model: dormancy (butyrate + nitrate, low O2), time point: constant (~7 days, model-specific) | 0.0771 | 0.965 | 0.0628 | 0.158 | -0.937
in vitro model: dormancy (butyrate + nitrate, low O2), time point: terminal (~4-5 doublings, model-specific) | 0.067 | 0.994 | -0.464 | -0.183 | 0.154
in vitro model: standard 7H9 glycerol, time point: constant = terminal | 0.0923 | 0.907 | 0.0923 | 0.00896 | 1.54
in vitro model: valerate, time point: constant (~7 days, model-specific) | 0.0792 | 0.861 | 0.00522 | 0.944 | –
in vitro model: valerate, time point: terminal (~4-5 doublings, model-specific) | 0.0548 | 0.925 | 0.043 | 0.559 | 0.577
